As usually defined, the IC50 is the concentration needed to halve the response being measured. A low value points to greater potency.

Each structure is given as a SMILES string.

From US9850245B2 (Merck Sharp & Dohme Corp., priority 2014, dated 2017) come the findings set out here.

One assay has as its target Kir1.1 (ROMK1) (Homo sapiens (Human), UniProt P48048). The experiment in a line: Electrophysiology Assay (whole cell voltage clamp, IonWorks Quattro). Type of assay: cell-based. The following applies: Chinese hamster ovary cells stably expressing Kir1.1; fractional block at voltage step to 0 mV; 6 min compound incubation. On the procedure:
Blocking of Kir1.1 (ROMK1) currents was examined by whole cell voltage clamp (Hamill et. al. Pfluegers Archives 391:85-100 (1981)) using the IonWorks Quattro automated electrophysiology platform (Molecular Devices, Sunnyvale, Calif.). Chinese hamster ovary cells stably expressing Kir1.1 channels were maintained in T-75 flasks in cell culture media in a humidified 10% CO2 incubator at 37° C. Prior to an experiment, Kir1.1 expression was induced by overnight incubation with 1 mM sodium butyrate. On the day of the experiment, cells were dissociated with 2.5 mL of Versene (Invitrogen 15040-066), a non-enzymatic cell dissociation reagent, for approximately 6 min at 37° C. and suspended in 10 mL of bath solution containing (in mM): 150 NaCl, 10 KCl, 2.7 CaCl2, 0.5 MgCl2, and 5 HEPES, at pH 7.4. After centrifugation, the cell pellet was resuspended in approximately 4.0 mL of bath solution and placed in the IonWorks instrument. The intracellular solution consisted of (in mM): 80 K gluconate, 40 KCl, 20 KF, 3.2 MgCl2, 3 EGTA, and 5 Hepes, at pH 7.4. Electrical access to the cytoplasm was achieved by perforation in 0.13 mg/mL amphotericin B for 4 min. Amphotericin B (Sigma A-4888) was prepared as a 40 mg/mL solution in DMSO.
Voltage protocols and current recordings were performed using the IonWorks HT software/hardware system. Currents were sampled at 1 kHz. There was no correction for liquid junction potentials. The test pulse, consisting of a 100 ms (millisecond) step to 0 mV (millivolts) from a holding potential of −70 mV, followed by a 100 ms voltage ramp from −70 mV to +70 mV, was applied before and after a 6 min compound incubation period. Test compounds were prepared by diluting DMSO stock solutions into the bath solution at 3× the final concentration and placed in the instrument in 96-well polypropylene plates. Current amplitudes were measured using the IonWorks software. To assess compound potency, the fractional block during the voltage step to 0 mV was calculated in Microsoft Excel (Microsoft, Redmond, Calif.), and dose-response curves were fitted with Igor Pro 4.0 (WaveMetrics, Lake Oswego, Oreg.).
Background: The patch-clamp technique gives a direct electrical read-out from membranes.

The next assay deals with ROMK (Homo sapiens (Human), UniProt P48048). The experiment in a line: Thallium Flux Assay. Type of assay: cell-based. On the procedure:
A Thallium Flux Assay was performed on the compounds of the Examples. This assay has been described previously; see, e.g., PCT Published Application WO 2013/062900.

Sequence of ROMK (P48048 whole entry): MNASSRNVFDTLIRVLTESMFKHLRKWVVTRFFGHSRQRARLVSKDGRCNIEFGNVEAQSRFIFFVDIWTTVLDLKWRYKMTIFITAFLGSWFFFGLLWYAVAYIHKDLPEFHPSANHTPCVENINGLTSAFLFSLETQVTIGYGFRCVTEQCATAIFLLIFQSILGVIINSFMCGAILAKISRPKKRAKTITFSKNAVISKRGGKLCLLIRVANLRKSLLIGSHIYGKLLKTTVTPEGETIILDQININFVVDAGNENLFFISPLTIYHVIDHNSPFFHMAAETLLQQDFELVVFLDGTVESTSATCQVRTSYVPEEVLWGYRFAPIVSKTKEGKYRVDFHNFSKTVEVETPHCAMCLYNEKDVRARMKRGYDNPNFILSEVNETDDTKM
Sequence of Kir1.1 (ROMK1) (P48048 whole entry): as above

As for `CC1=C(N2CCNC3(CCN(CC(O)c4ccc(-n5cnnn5)nc4C)CC3)C2=O)COC1=O` (single isomer, unassigned) [Example 2A, 9-(2-hydroxy-2-(2-methyl-6-(1H-tetrazol-1-yl)pyridin-3-yl)ethyl)-4-(4-methyl-5-oxo-2,5-dihydrofuran-3-yl)-1,4,9-triazaspiro[5.5]undecan-5-one], the IC50 against Kir1.1 (ROMK1) turned out to be 26 nM; against ROMK, 36.5 nM.

Consider `CC1=C(N2CCOC3(CCN(CC(O)c4cnc(-n5cnnn5)cn4)CC3)C2=O)COC1=O` (single isomer, unassigned) [Example 18A, 9-(2-(5-(1H-tetrazol-1-yl)pyrazin-2-yl)-2-hydroxyethyl)-4-(4-methyl-5-oxo-2,5-dihydrofuran-3-yl)-1-oxa-4,9-diazaspiro[5.5]undecan-5-one], for which the IC50 at Kir1.1 (ROMK1) turned out to be 12 nM; on ROMK, 69.6 nM.

For the molecule `Cc1nc(-n2cnnn2)ccc1C(O)CN1CCC2(CC1)CN(C1=CC(=O)OC1)CCO2` (single isomer, unassigned) [Example 20A, 4-(9-(2-hydroxy-2-(2-methyl-6-(1H-tetrazol-1-yl)pyridin-3-yl)ethyl)-1-oxa-4,9-diazaspiro[5.5]undecan-4-yl)furan-2(5H)-one], the figures for the concentration for half-maximal inhibition (IC50) against Kir1.1 (ROMK1) and against ROMK were 37 nM and 61.5 nM, respectively.

For the molecule `Cc1nc(-n2cnnn2)ccc1C(O)CN1CCC2(CC1)CN(C1=CC(=O)OC1)CCO2` (single isomer, unassigned) [Example 20B, 4-(9-(2-hydroxy-2-(2-methyl-6-(1H-tetrazol-1-yl)pyridin-3-yl)ethyl)-1-oxa-4,9-diazaspiro[5.5]undecan-4-yl)furan-2(5H)-one], the 50% inhibitory concentration (IC50) turned out to be 71 nM at Kir1.1 (ROMK1) and 225 nM on ROMK.

As to `CC1=C(N2CCOC3(CCN(CC(O)c4ccc(-n5cnnn5)nc4C)CC3)C2)COC1=O` (single isomer, unassigned) [Example 22A, 4-(9-(2-hydroxy-2-(2-methyl-6-(1H-tetrazol-1-yl)pyridin-3-yl)ethyl)-1-oxa-4,9-diazaspiro[5.5]undecan-4-yl)-3-methylfuran-2(5H)-one], the IC50 against Kir1.1 (ROMK1) is 11 nM; against ROMK it was 34 nM.

In the case of `CC1=C(N2CCOC3(CCN(CC(O)c4ccc(-n5cnnn5)nc4C)CC3)C2)COC1=O` (single isomer, unassigned) [Example 22B, 4-(9-(2-hydroxy-2-(2-methyl-6-(1H-tetrazol-1-yl)pyridin-3-yl)ethyl)-1-oxa-4,9-diazaspiro[5.5]undecan-4-yl)-3-methylfuran-2(5H)-one], the IC50 on Kir1.1 (ROMK1) was 29 nM; against ROMK it was 117 nM.

Consider `CC1=C(N2CCOC3(CCN(CC(O)c4cnc(-n5cnnn5)nc4)CC3)C2=O)COC1=O` (single isomer, unassigned) [Example 46A, 9-(2-(2-(1H-tetrazol-1-yl)pyrimidin-5-yl)-2-hydroxyethyl)-4-(4-methyl-5-oxo-2,5-dihydrofuran-3-yl)-1-oxa-4,9-diazaspiro[5.5]undecan-5-one], for which the IC50 stood at 51 nM at Kir1.1 (ROMK1) and 56 nM at ROMK.

On to `CC1=C(N2CCNC3(CCN(C[C@H](O)c4ccc(-n5cnnn5)nc4)CC3)C2=O)COC1=O` [Example 4A, (R)-9-(2-(6-(1H-tetrazol-1-yl)pyridin-3-yl)-2-hydroxyethyl)-4-(4-methyl-5-oxo-2,5-dihydrofuran-3-yl)-1,4,9-triazaspiro[5.5]undecan-5-one], for which the IC50 against Kir1.1 (ROMK1) was determined as 46 nM; at ROMK, 38.2 nM.

For the molecule `CC1=C(N2CCOC3(CCN(C[C@H](O)c4ccc(-n5cnnn5)nc4)CC3)C2=O)COC1=O` [Example 6A, (R)-9-(2-(6-(1H-tetrazol-1-yl)pyridin-3-yl)-2-hydroxyethyl)-4-(4-methyl-5-oxo-2,5-dihydrofuran-3-yl)-1-oxa-4,9-diazaspiro[5.5]undecan-5-one], the figures for the IC50 against Kir1.1 (ROMK1) and against ROMK were 6.6 nM and 14.6 nM, respectively.

With `CC1=C(N2CCOC3(CCN(C[C@@H](O)c4ccc(-n5cnnn5)nc4)CC3)C2=O)COC1=O` [Example 6B, (S)-9-(2-(6-(1H-tetrazol-1-yl)pyridin-3-yl)-2-hydroxyethyl)-4-(4-methyl-5-oxo-2,5-dihydrofuran-3-yl)-1-oxa-4,9-diazaspiro[5.5]undecan-5-one], the IC50 against Kir1.1 (ROMK1) worked out at 3.8 nM; on ROMK, 12.1 nM.

As for `CC1=C(N2CCOC3(CCN(C[C@H](O)c4ccc5c(c4C)COC5=O)CC3)C2=O)COC1=O` [Example 8A, (R)-9-(2-hydroxy-2-(4-methyl-1-oxo-1,3-dihydroisobenzofuran-5-yl)ethyl)-4-(4-methyl-5-oxo-2,5-dihydrofuran-3-yl)-1-oxa-4,9-diazaspiro[5.5]undecan-5-one], the 50% inhibitory concentration (IC50) against Kir1.1 (ROMK1) was determined as 6.4 nM; on ROMK it was 13.3 nM.

For the molecule `Cc1c([C@@H](O)CN2CCC3(CC2)CN(C2=CC(=O)OC2)C(=O)O3)ccc2c1COC2=O` [Example 16, (R)-8-(2-hydroxy-2-(4-methyl-1-oxo-1,3-dihydroisobenzofuran-5-yl)ethyl)-3-(5-oxo-2,5-dihydrofuran-3-yl)-1-oxa-3,8-diazaspiro[4.5]decan-2-one], the IC50 against Kir1.1 (ROMK1) worked out at 320 nM; at ROMK, 315 nM.

Turning to `O=C1C=C(N2CCOC3(CCN(C[C@H](O)c4ccc(-n5cnnn5)nc4)CC3)C2)CO1` [Example 19A, (R)-4-(9-(2-(6-(1H-tetrazol-1-yl)pyridin-3-yl)-2-hydroxyethyl)-1-oxa-4,9-diazaspiro[5.5]undecan-4-yl)furan-2(5H)-one], the IC50 was 56 nM against Kir1.1 (ROMK1) and 80.6 nM against ROMK.

Regarding `O=C1C=C(N2CCOC3(CCN(C[C@@H](O)c4ccc(-n5cnnn5)nc4)CC3)C2)CO1` [Example 19B, (S)-4-(9-(2-(6-(1H-tetrazol-1-yl)pyridin-3-yl)-2-hydroxyethyl)-1-oxa-4,9-diazaspiro[5.5]undecan-4-yl)furan-2(5H)-one], the IC50 stood at 100 nM against Kir1.1 (ROMK1) and 263 nM at ROMK.

Take `CC1=C(N2CCOC3(CCN(C[C@H](O)c4ccc5c(c4C)COC5=O)CC3)C2)COC1=O` [Example 21, (R)-5-(1-hydroxy-2-(4-(4-methyl-5-oxo-2,5-dihydrofuran-3-yl)-1-oxa-4,9-diazaspiro[5.5]undecan-9-yl)ethyl)-4-methylisobenzofuran-1(3H)-one]: the IC50 on Kir1.1 (ROMK1) came out at 77 nM; against ROMK, 171 nM.

As to `CC1=C(N2CCN(C)C3(CCN(C[C@H](O)c4ccc5c(c4C)COC5=O)CC3)C2=O)COC1=O` [Example 34, (R)-9-(2-hydroxy-2-(4-methyl-1-oxo-1,3-dihydroisobenzofuran-5-yl)ethyl)-1-methyl-4-(4-methyl-5-oxo-2,5-dihydrofuran-3-yl)-1,4,9-triazaspiro[5.5]undecan-5-one], the IC50 at Kir1.1 (ROMK1) came out at 27 nM; against ROMK, 42.3 nM.

`Cc1c([C@@H](O)CN2C3CCC2CC2(C3)OCCN(C3=CC(=O)OC3)C2=O)ccc2c1COC2=O` (stereo partly drawn) [Example 36, (1R,2′R,5S)-8-((R)-2-hydroxy-2-(4-methyl-1-oxo-1,3-dihydroisobenzofuran-5-yl)ethyl)-4′-(5-oxo-2,5-dihydrofuran-3-yl)-8-azaspiro[bicyclo[3.2.1]octane-3,2′-morpholin]-3′-one]: the IC50 came out at 13.4 nM against Kir1.1 (ROMK1) and 29.3 nM at ROMK.

Take `CC1=C(N2CCOC3(CCN(CC(O)c4ccc(-n5cnnn5)nc4C)CC3)C2=O)COC1=O` (centres unmarked) [Example 39, 9-(2-hydroxy-2-(2-methyl-6-(1H-tetrazol-1-yl)pyridin-3-yl)ethyl)-4-(4-methyl-5-oxo-2,5-dihydrofuran-3-yl)-1-oxa-4,9-diazaspiro[5.5]undecan-5-one]: the concentration for half-maximal inhibition (IC50) against Kir1.1 (ROMK1) was found to be 13 nM; on ROMK, 11.2 nM.

Turning to `CC1=C(N2CCOC3(CCN(CCc4ccc(-n5cnnn5)cn4)CC3)C2)COC1=O` [Example 50], the IC50 against Kir1.1 (ROMK1) stood at 16 nM; at ROMK, 57.6 nM.

For the molecule `CC1=C(N2CCOC3(CCN(CCc4ccc(-n5cnnn5)nn4)CC3)C2=O)COC1=O` [Example 51, 9-(2-(6-(1H-tetrazol-1-yl)pyridazin-3-yl)ethyl)-4-(4-methyl-5-oxo-2,5-dihydrofuran-3-yl)-1-oxa-4,9-diazaspiro[5.5]undecan-5-one], the half-inhibitory concentration (IC50) was 7.3 nM on Kir1.1 (ROMK1) and 26.8 nM at ROMK.

`CC1=C(N2CC3(CCN(C[C@H](O)c4ccc5c(c4C)COC5=O)CC3)OCC2=O)COC1=O` [Example 59, (R)-9-(2-hydroxy-2-(4-methyl-1-oxo-1,3-dihydroisobenzofuran-5-yl)ethyl)-4-(4-methyl-5-oxo-2,5-dihydrofuran-3-yl)-1-oxa-4,9-diazaspiro[5.5]undecan-3-one] showed a half-maximal inhibitory concentration (IC50) at ROMK of 697 nM. This lies in the sub-micromolar range.
